Experimental data from ChEMBL document CHEMBL1136204, “Thymidine and thymidine-5'-O-monophosphate analogues as inhibitors of Mycobacterium tuberculosis thymidylate kinase” (Bioorg Med Chem Lett, 2003).

How the values were obtained:
[1] = molecular target: T1, Thymidylate kinase (Mycobacterium tuberculosis) (UniProt P9WKE1); test: (§1) Kinetic parameter Vm of thymidine monophosphate kinase (TMPKmt) in Mycobacterium tuberculosis was determined; type: functional
T1 sequence (whole entry): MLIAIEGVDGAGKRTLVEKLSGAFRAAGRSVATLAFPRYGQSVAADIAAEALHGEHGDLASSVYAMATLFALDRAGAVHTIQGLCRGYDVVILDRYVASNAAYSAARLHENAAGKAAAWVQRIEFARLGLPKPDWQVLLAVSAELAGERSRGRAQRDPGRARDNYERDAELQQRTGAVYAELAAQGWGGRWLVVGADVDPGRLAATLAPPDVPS

[2] = molecular target: T1, Thymidylate kinase (Mycobacterium tuberculosis); test: as §1

Compound | Vm [1] [µM/min/mg] | Vm [2] [µM/min/mg]
O=c1[nH]c(=O)n([C@H]2C[C@H](O)[C@@H](COP(=O)(O)O)O2)cc1Br | 9.8 | 
O=c1ccn([C@H]2C[C@H](O)[C@@H](COP(=O)(O)O)O2)c(=O)[nH]1 | 3.5 | 
O=c1[nH]c(=O)n([C@H]2C[C@H](O)[C@@H](COP(=O)(O)O)O2)cc1F | 4.7 | 
O=c1[nH]c(=O)n([C@H]2C[C@H](O)[C@@H](COP(=O)(O)O)O2)cc1I | 7.5 | 
Cc1cn([C@H]2C[C@H](O)[C@@H](COP(=O)(O)O)O2)c(=O)[nH]c1=O |  | 10.6
